Laboratory results as given in patent US20110236405A1, “COAGULATION FACTOR MODULATION FOR CONTROLLING TRANSPLANT ORGAN SIZE” (Tel HaShomer Medical Research Infrastructure and Services …, priority 2008, published 2011).
Several values for one entry are separate records, joined by “and”; a condition that tells them apart may be missing. Equal values may be shown once. Where no end group is shown, it is not given here. The star is where a group is joined. Palmitoyl = CCCCCCCCCCCCCCCC(=O)*

How the values were obtained:
Assay type in all cases: in vivo, mouse
C57BL mice = test: G-CSF induced splenomegaly in C57BL and C57BL hemophilic mice; conditions: for effect on G-CSF induced splenomegaly: C57BL mice, daily treatment plus G-CSF, versus G-CSF alone; for average spleen weight: G-CSF treated
Description: 8 to 10 week old immune competent C57BL mice and C57BL hemophilic (C57BL Hem F8) mice were used for the G-CSF studies.
(§1) 8-10 weeks old NOD-SCID or Factor VIII KO SCID mice were treated by daily subcutaneous injections of recombinant human G-CSF (Neupogen, Amgen) at a dose of 250 μg per kg per day for 7 days. To determine the spleen weight, 7 days after the initiation of G-CSF treatment, mice were euthanized and spleens were harvested.
Enoxaparine (Clexane 20 mg/0.2 ml, Rhone-poulenc, France) was used at a dosage of 200 μg/mouse (dissolved in PBS) and 0.2 ml of the final solution was injected subcutaneously into each mouse once a day.
Dabigatran etexilate (Boehringer Ingelheim Pharma KG, Biberach, Germany) was administrated orally at dosage of 30 mg/kg. Final volume of 0.3 ml dissolved in DDW was administrated daily.
The palmitoylated peptides: pal-RCLSSSAVANRS (PAR1 antagonist, SEQ ID NO: 15) and pal-SGRRYGHALR (PAR4 antagonist, SEQ ID NO: 16) were prepared by solid-phase peptide synthesis using in situ neutralization/HBTU by Hadar Biotec, Israel.
The mice were treated by vehicle control, or with PAR1 antagonist or PAR4 antagonist at 0.5 mg/kg, intraperitonealy on daily basis.

[1] = system: E42 pig liver precursor tissue implanted in Rag-/- mice; test: Embryonic pig liver implant growth in Rag-/- mice, pig albumin serum ELISA
Description: In addition, immune deficient RAG^−/− mice or RAG^−/− FVIII KO mice were used as hosts for the transplantation studies. To obtain RAG^−/− hemophilic mice (designated RAG^−/− FVIII KO mice), FVIII mutation was introduced into RAG^−/− mice, as was previously described. All mice were kept in small cages (up to five animals per cage) and fed sterile food.
Pig embryos were obtained from the Lahav Institute of Animal Research (Kibbutz Lahav, Israel). […] Warm ischemia time was less than 10 minutes and the embryos were transferred to cold PBS. Spleen, pancreas and liver precursors for transplantation were extracted under a light microscope and were kept in sterile conditions at 4° C. in RPMI 1640 (Biological Industries, Beit HaEmek, Israel) prior to transplantation. Cold ischemia time until transplantation was less than 2 hours.
Transplantation of pig precursors was completed as previously described [Dekel, B. et al., Nat Med (2003) 9, 53-60]. Briefly, transplantation of the embryonic precursors was performed under general anesthesia (2.5% 2,2,2-Tribromoethanol, 97% in PBS, 10 ml/kg intraperitoneally). […]
Pig albumin in mouse serum was measured by a standard ELISA procedure using primary goat anti-pig albumin antibody (human, mouse, and bovine absorbed), affinity purified, and secondary pig specific horseradish-peroxidase conjugated antibody (Catalog Nos. A100-210A and A100-210P, Bethyl). […]

[2] = system: NOD-SCID or Factor VIII KO SCID mice; test: G-CSF induced splenomegaly in NOD-SCID and Factor VIII KO SCID mice; conditions: for average spleen weight: G-CSF 250 μg per kg per day s.c. for 7 days
Description: 8-10 week old immune deficient NOD-SCID or factor VIII KO-SCID mice (Weizmann Institute Animal Breeding Center, Rehovot, Israel) were used for G-CSF studies. To obtain immunodeficient hemophilic mice (designated factor VIII KO-SCID), FVIII-deficient mice were crossed with SCID mice, as was previously described [Aronovich, A. et al., Proc Natl Acad Sci USA (2006) 103: 19075-80].
as §1
Hu Factor VIII was infused into Factor VIII KO SCID mice by osmotic pumps (Azlet pump model 1003D, 1 μl/hr rate, 100 μl total capacity with a continuous delivery for 3 days). Thus, 60 IU Hu factor VIII was dissolved in 100 μl PBS and delivered by the 1003D pump for 3 days. The pump was administrated into the peritoneal cavity. After 3 days, a similar new pump was administrated. Initial concentration of the Hu Factor VIII was calibrated based on Hu Factor VIII half life and its clearance rate [Mordenti, J. et al., Toxicol Appl Pharmacol (1996) 136: 75-81].

`CCCCCCOC(=O)NC(=N)c1ccc(NCc2nc3cc(C(=O)N(CCC(=O)OCC)c4ccccn4)ccc3n2C)cc1` [Dabigatran, Dabigatran etexilate] was tested, and the “effect on G-CSF induced splenomegaly” value (C57BL mice) was “marked enhancement” and the “embryonic pig liver growth (pig albumin serum levels)” value ([1]; Rag-/- mice, Dabigatran etexilate 30 mg/kg orally daily) was “enhancement”.

With Enoxaparine [Clexane] the “effect on G-CSF induced splenomegaly” value (C57BL mice) was “marked enhancement”, the “total average weight of the spleens” value (C57BL mice; C57BL/6 mice, following G-CSF induction, Clexane 200 μg/mouse s.c. once a day) was 266 ± 91 mg and the “pig albumin blood levels” value ([1]; non-hemophilic recipients, days 7 and 21 post transplant, versus control recipients not receiving Clexane) was “marked enhancements”.

For “pal-RCLSSSAVANRS (Palmitoyl-RCLSSSAVANRS) [PAR1 antagonist, palmitoylated peptide, PAR1 antagonist]”, the “effect on G-CSF induced splenomegaly” value (C57BL mice) was “significantly enhanced”.

For “pal-SGRRYGHALR (Palmitoyl-SGRRYGHALR) [PAR4 antagonist, palmitoylated peptide, PAR4 antagonist]”, the “effect on G-CSF induced splenomegaly” value (C57BL mice) was “significantly enhanced”.

B1: G-CSF: recombinant human G-CSF (Neupogen, Amgen) (protein, chains of the INN, looked up)
chain: MTPLGPASSLPQSFLLKCLEQVRKIQGDGAALQEKLCATYKLCHPEELVLLGHSLGIPWAPLSSCPSQALQLAGCLSQLHSGLFLYQGLLQALEGISPELGPTLDTLQLDVADFATTIWQQMEELGMAPALQPTQGAMPAFASAFQRRAGGVLVASHLQSFLEVSYRVLRHLAQP
B1 was tested, and the average spleen weight ([2]; Factor VIII KO SCID mice) was 314.89 ± 121.51 mg, the “average spleen weight, Factor VIII KO SCID versus non-hemophilic mice” value ([2]; G-CSF treated mice) was 2.6 fold and the average spleen weight ([2]; non-hemophilic NOD-SCID mice) was 118.5 ± 25.56 mg. For the same molecule, the average spleen weight (C57BL mice; C57BL hemophilic (Hem F8, Factor VIII KO) mice) was 256.03 ± 149.86 mg and 261 ± 154 mg and the average spleen weight (C57BL mice; non-hemophilic C57BL mice) was 181.22 ± 61.43 mg.
